Data taken from patent US9487476B2, “Catechol diethers as potent anti-HIV agents” (priority 2011, dated 2016).
Like-named read-outs stand apart in the source and are kept apart here.

Columns and labels:
Type in all cases: cell-based
[1] = test system: HIV-1 variant containing the Y181C (Tyr181Cys) mutation; assay: Anti-HIV-1 activity against variant strain in MT-2 cells (MTT)
[2] = test system: HIV-1 variant containing the K103N/Y181C mutations; assay: Anti-HIV-1 activity against double-mutant strain in MT-2 cells (MTT)
[3] = test system: MT-2 human T-cells; assay: Cytotoxicity, inhibition of MT-2 cell growth
[4] = test system: WT HIV-1 (IIIB strain); assay: Anti-HIV-1 activity, protection of infected MT-2 cells (MTT)
[5] = Human immunodeficiency virus 1, MT2, read-out: EC50 Y181C
[6] = Human immunodeficiency virus 1, MT2, read-out: EC50 K103N/Y181C
[7] = Human immunodeficiency virus 1, IIIB, MT2, running text, read-out: EC50 against WT HIV-1
[8] = Table 5, MT-2 cells, read-out: EC50 Y181C
[9] = Table 4, MT-2 cells, read-out: Cytotoxicity (CC50)
[10] = Table 5, MT-2 cells, read-out: Average Cytotoxicity (CC50)
[11] = Table 4, catechol diether derivatives, MT-2 cells, read-out: Anti-HIV-1 Activity (EC50)
[12] = Table 5, MT-2 cells, read-out: EC50 WT
[13] = Table 5, MT-2 cells, read-out: EC50 K103N/Y181C

Question: How did the EC50 [1, 5] turn out when `N#Cc1cc(C#N)cc(Oc2cc(Cl)ccc2OCCn2ccc(=O)[nH]c2=O)c1` [Compound 20, 5-(5-chloro-2-(2-(2,4-dioxo-3,4-dihydropyrimidin-1(2H)-yl)ethoxy)phenoxy)isophthalonitrile] was run?
Answer: Its EC50 is 21000 nM.

Question: What about the EC50 [2, 6] of the same molecule?
Answer: The EC50 was 2200 nM.

Question: What does the source list for `N#Cc1cc(Cl)cc(Oc2cc(Cl)ccc2OCCn2ccc(=O)[nH]c2=O)c1` [Compound 22, 3-chloro-5-(5-chloro-2-(2-(2,4-dioxo-3,4-dihydropyrimidin-1(2H)-yl)ethoxy)phenoxy)benzonitrile]?
Answer: EC50 [1, 5]: 6700 nM; EC50 [2, 6]: 1200 nM

Question: `N#Cc1cc(C#N)cc(Oc2ccc(Cl)cc2OCCn2ccc(=O)[nH]c2=O)c1` [Compound 24, 5-(4-chloro-2-(2-(2,4-dioxo-3,4-dihydropyrimidin-1(2H)-yl)ethoxy)phenoxy)isophthalonitrile] was tested. Which CC50 ([3]; human) did it give?
Answer: Its CC50 is over 100000 nM.

Question: How did the EC50 [1, 5] turn out when `N#Cc1cc(Cl)cc(Oc2ccc(Cl)cc2OCCn2ccc(=O)[nH]c2=O)c1` [Compound 25, 3-chloro-5-(4-chloro-2-(2-(2,4-dioxo-3,4-dihydropyrimidin-1(2H)-yl)ethoxy)phenoxy)benzonitrile] was run?
Answer: The EC50 was 520 nM.

Question: And the CC50 ([3]; human)?
Answer: Its CC50 is over 100000 nM.

Question: What about the “cytotoxicity, limit of the tested concentration range” value ([3]; human) of the same molecule?
Answer: Its value is over 100 µM.

Question: What about the EC50 [4, 7] of the same molecule?
Answer: Its EC50 is 14 nM.

Question: And the EC50 [2, 6]?
Answer: The EC50 was 1700 nM.

Question: Which results are given for `N#Cc1cc(Cl)cc(Oc2ccc(Cl)cc2OCCn2cc(F)c(=O)[nH]c2=O)c1` [Compound 26, 3-chloro-5-(4-chloro-2-(2-(5-fluoro-2,4-dioxo-3,4-dihydropyrimidin-1(2H)-yl)ethoxy)phenoxy)benzonitrile]?
Answer: EC50 [1, 5]: 620 nM; EC50 [2, 6]: 1700 nM

Question: `N#Cc1cc(Cl)cc(Oc2ccc(Cl)cc2OCCn2cc(Cl)c(=O)[nH]c2=O)c1` [Compound 27, 3-chloro-5-(4-chloro-2-(2-(5-chloro-2,4-dioxo-3,4-dihydropyrimidin-1(2H)-yl)ethoxy)phenoxy)benzonitrile] was tested. Which “ratio between variant and WT activities (Y181C/WT)” value [1] did it give?
Answer: Its value is 14 fold.

Question: And the EC50 [1, 5]?
Answer: Its EC50 is 240 nM.

Question: What about the EC50 ([1]; Human immunodeficiency virus 1, MT2, read-out: EC50 Y181C variant) of the same molecule?
Answer: Its EC50 is 240 nM.

Question: What about the CC50 ([3]; human) of the same molecule?
Answer: The CC50 was 21000 nM.

Question: And the EC50 [4, 7]?
Answer: The EC50 was 17 nM.

Question: And the “ratio between variant and WT activities (K103N/Y181C / WT)” value [2]?
Answer: Its value is 34 fold.

Question: And the EC50 [2, 6]?
Answer: The EC50 was 570 nM.

Question: What about the EC50 ([2]; Human immunodeficiency virus 1, MT2, read-out: EC50 K103N/Y181C variant) of the same molecule?
Answer: Its EC50 is 570 nM.

Question: Which CC50 ([3]; human) does the source give for `N#Cc1cc(Cl)cc(Oc2ccc(C#N)cc2OCCn2ccc(=O)[nH]c2=O)c1` [Compound 28, 4-(3-chloro-5-cyanophenoxy)-3-(2-(2,4-dioxo-3,4-dihydropyrimidin-1(2H)-yl)ethoxy)benzonitrile] here?
Answer: Its CC50 is over 100000 nM.

Question: For `N#Cc1cc(Cl)cc(Oc2ccc(C#N)cc2OCCn2cc(Cl)c(=O)[nH]c2=O)c1` [Compound 29, 3-(2-(5-chloro-2,4-dioxo-3,4-dihydropyrimidin-1(2H)-yl)ethoxy)-4-(3-chloro-5-cyanophenoxy)benzonitrile], which CC50 ([3]; human) is on record?
Answer: The CC50 was 94000 nM.

Question: Which results are given for `N#Cc1ccc(Oc2ccccc2Cl)c(OCCn2ccc(=O)[nH]c2=O)c1` [Compound 30, 4-(2-chlorophenoxy)-3-(2-(2,4-dioxo-3,4-dihydropyrimidin-1(2H)-yl)ethoxy)benzonitrile]?
Answer: CC50 ([3]; human): > 100000 nM; EC50 [4, 7]: 270 nM

Question: Which EC50 [1, 5] does the source give for `N#Cc1ccc(Oc2cc(Cl)ccc2Cl)c(OCCn2ccc(=O)[nH]c2=O)c1` [Compound 31, 4-(2,5-dichlorophenoxy)-3-(2-(2,4-dioxo-3,4-dihydropyrimidin-1(2H)-yl)ethoxy)benzonitrile] here?
Answer: Its EC50 is 920 nM.

Question: And the EC50 [4, 7]?
Answer: Its EC50 is 43 nM.

Question: And the EC50 [2, 6]?
Answer: The EC50 was 2800 nM.

Question: `N#Cc1ccc(Oc2cc(Cl)cc(Cl)c2)c(OCCn2ccc(=O)[nH]c2=O)c1` [Compound 32, 4-(3,5-dichlorophenoxy)-3-(2-(2,4-dioxo-3,4-dihydropyrimidin-1(2H)-yl)ethoxy)benzonitrile] was tested. Which EC50 [1, 5] did it give?
Answer: Its EC50 is 800 nM.

Question: What about the EC50 [4, 7] of the same molecule?
Answer: Its EC50 is 20 nM.

Question: What about the EC50 [2, 6] of the same molecule?
Answer: Its EC50 is over 43000 nM.

Question: Which results are given for `N#C/C=C/c1cccc(Oc2ccc(C#N)cc2OCCn2ccc(=O)[nH]c2=O)c1` [Compound 40, (E)-4-(3-(2-cyanovinyl)phenoxy)-3-(2-(2,4-dioxo-3,4-dihydropyrimidin-1(2H)-yl)ethoxy)benzonitrile]?
Answer: EC50 [1, 5]: 980 nM; EC50 [4, 7]: 15 nM; EC50 [2, 6]: 8000 nM

Question: Which results are given for `N#C/C=C/c1cccc(Oc2ccc(Cl)cc2OCCn2ccc(=O)[nH]c2=O)c1` [Compound 41, (E)-3-(3-(4-chloro-2-(2-(2,4-dioxo-3,4-dihydropyrimidin-1(2H)-yl)ethoxy)phenoxy)phenyl)acrylonitrile]?
Answer: EC50 [1, 5]: 370 nM; EC50 [4, 7]: 5 nM; EC50 [2, 6]: 1600 nM

Question: `N#Cc1cc(F)c(Oc2ccccc2Cl)c(OCCn2ccc(=O)[nH]c2=O)c1` [Compound 44, 4-(2-chlorophenoxy)-3-(2-(2,4-dioxo-3,4-dihydropyrimidin-1(2H)-yl)ethoxy)-5-fluorobenzonitrile] was tested. Which CC50 ([3]; human) did it give?
Answer: The CC50 was over 100000 nM.

Question: What about the EC50 [4, 7] of the same molecule?
Answer: Its EC50 is 160 nM.

Question: Which CC50 ([3]; human) does the source give for `O=c1ccn(CCOc2cc(Cl)cc(Cl)c2Oc2ccccc2Cl)c(=O)[nH]1` [Compound 45, 1-(2-(3,5-dichloro-2-(2-chlorophenoxy)phenoxy)ethyl)pyrimidine-2,4(1H,3H)-dione] here?
Answer: Its CC50 is 13000 nM.

Question: What about the EC50 [4, 7] of the same molecule?
Answer: Its EC50 is 830 nM.

Question: With `COCCOc1cccc(Oc2ccc(C#N)cc2OCCn2ccc(=O)[nH]c2=O)c1` [Compound 46, 3-(2-(2,4-dioxo-3,4-dihydropyrimidin-1(2H)-yl)ethoxy)-4-(3-(2-methoxyethoxy)phenoxy)benzonitrile] as the molecule, how does the CC50 ([3]; human) read?
Answer: The CC50 was over 100000 nM.

Question: What about the EC50 [4, 7] of the same molecule?
Answer: The EC50 was 540 nM.

Question: `N#Cc1ccc(Oc2cccc(OCCCO)c2)c(OCCn2ccc(=O)[nH]c2=O)c1` [Compound 47, 3-(2-(2,4-dioxo-3,4-dihydropyrimidin-1(2H)-yl)ethoxy)-4-(3-(3-hydroxypropoxy)phenoxy)benzonitrile] was tested. Which CC50 ([3]; human) did it give?
Answer: Its CC50 is over 100000 nM.

Question: And the EC50 [4, 7]?
Answer: The EC50 was 1800 nM.

Question: How did the EC50 [1, 8] turn out when `N#C/C=C/c1cc(F)cc(Oc2ccc(Cl)cc2OCCn2ccc(=O)[nH]c2=O)c1` [JLJ505] was run?
Answer: Its EC50 is 150 nM.

Question: And the CC50 [3, 9]?
Answer: The CC50 was over 48000 nM.

Question: And the CC50 [3, 10]?
Answer: Its CC50 is at least 48000 nM.

Question: What about the EC50 [4, 11] of the same molecule?
Answer: The EC50 was 3.2 nM.

Question: And the EC50 [4, 12]?
Answer: The EC50 was 3.2 nM.

Question: And the EC50 [2, 13]?
Answer: Its EC50 is 900 nM.

Question: With `N#C/C=C/c1cc(F)cc(Oc2ccc(F)cc2OCCn2ccc(=O)[nH]c2=O)c1` [JLJ506] as the molecule, how does the EC50 [1, 8] read?
Answer: The EC50 was 16 nM.

Question: What about the CC50 [3, 9] of the same molecule?
Answer: The CC50 was over 45000 nM.

Question: What about the CC50 [3, 10] of the same molecule?
Answer: Its CC50 is at least 45000 nM.

Question: And the EC50 [4, 11]?
Answer: The EC50 was 0.342 nM.

Question: What about the EC50 [4, 12] of the same molecule?
Answer: The EC50 was 0.342 nM.

Question: And the EC50 [2, 13]?
Answer: Its EC50 is 85 nM.

Question: Which results are given for `N#C/C=C/c1cc(F)cc(Oc2ccccc2OCCn2ccc(=O)[nH]c2=O)c1` [JLJ510]?
Answer: EC50 [1, 8]: 80 nM; CC50 [3, 9]: 70000 nM; CC50 [3, 10]: 85000 nM; EC50 [4, 11]: 0.9 nM; EC50 [4, 12]: 0.9 nM; EC50 [2, 13]: 75 nM

Question: With `N#C/C=C/c1cc(F)cc(Oc2ccc(Br)cc2OCCn2ccc(=O)[nH]c2=O)c1` [JLJ511] as the molecule, how does the CC50 [3] read?
Answer: Its CC50 is 15000 nM.

Question: What about the EC50 [4, 11] of the same molecule?
Answer: The EC50 was 1.8 nM.

Question: Which EC50 [1, 8] does the source give for `N#C/C=C/c1cc(Cl)cc(Oc2ccc(F)cc2OCCn2ccc(=O)[nH]c2=O)c1` [JLJ516] here?
Answer: Its EC50 is 60 nM.

Question: And the CC50 [3, 9]?
Answer: The CC50 was 62000 nM.

Question: What about the CC50 [3, 10] of the same molecule?
Answer: The CC50 was 63000 nM.

Question: And the EC50 [4, 11]?
Answer: Its EC50 is 0.77 nM.

Question: What about the EC50 [4, 12] of the same molecule?
Answer: The EC50 was 0.77 nM.

Question: And the EC50 [2, 13]?
Answer: Its EC50 is 250 nM.

Question: Which results are given for `N#C/C=C/c1cc(Br)cc(Oc2ccc(Cl)cc2OCCn2ccc(=O)[nH]c2=O)c1` [JLJ518]?
Answer: CC50 [3]: 80000 nM; EC50 [4, 11]: 5.2 nM

Question: For `N#C/C=C/c1cc(F)cc(Oc2ccc(OCCN3CCOCC3)cc2OCCn2ccc(=O)[nH]c2=O)c1` [JLJ526], which CC50 [3] is on record?
Answer: The CC50 was 27000 nM.

Question: What about the EC50 [4, 11] of the same molecule?
Answer: Its EC50 is 520 nM.

Question: Which results are given for `N#C/C=C/c1cc(Cl)cc(Oc2ccc(OCCN3CCOCC3)cc2OCCn2ccc(=O)[nH]c2=O)c1` [JLJ530]?
Answer: CC50 [3]: 100000 nM; EC50 [4, 11]: 1100 nM

Question: `N#C/C=C/c1cc(Cl)cc(Oc2ccc(Br)cc2OCCn2ccc(=O)[nH]c2=O)c1` [JLJ531] was tested. Which CC50 [3] did it give?
Answer: Its CC50 is 13000 nM.

Question: And the EC50 [4, 11]?
Answer: Its EC50 is 9.1 nM.

Question: Which EC50 [1, 8] does the source give for `N#C/C=C/c1cc(Cl)cc(Oc2ccccc2OCCn2ccc(=O)[nH]c2=O)c1` [JLJ532] here?
Answer: The EC50 was 46 nM.

Question: And the CC50 [3, 9]?
Answer: Its CC50 is 18000 nM.

Question: And the CC50 [3, 10]?
Answer: The CC50 was 11000 nM.

Question: What about the EC50 [4, 11] of the same molecule?
Answer: The EC50 was 0.31 nM.

Question: And the EC50 [4, 12]?
Answer: Its EC50 is 0.31 nM.

Question: And the EC50 [2, 13]?
Answer: The EC50 was 24 nM.
